# Measured values reported in ChEMBL document CHEMBL3044929, “Insecticidal activity of sesquiterpenes skeleton synthesized by the conventional Robinson annulations reaction on Drosophila melanogaster” (2013).
# Assays:
# Drosophila melanogaster [1] = experiment: Insecticidal activity against first-instar larval stage of Drosophila melanogaster fed with artificial diet containing compound assessed as mortality at 37.6 umol/ml measured after 144 hr; format: functional
# Drosophila melanogaster [2] = experiment: Insecticidal activity against first-instar larval stage of Drosophila melanogaster fed with artificial diet containing compound assessed as mortality at 37.6 umol/ml measured after 120 hr; format: functional
# Drosophila melanogaster [3] = experiment: Insecticidal activity against first-instar larval stage of Drosophila melanogaster fed with artificial diet containing compound assessed as mortality at 37.6 umol/ml measured after 96 hr; format: functional
# Drosophila melanogaster [4] = experiment: Insecticidal activity against first-instar larval stage of Drosophila melanogaster fed with artificial diet containing compound assessed as mortality at 37.6 umol/ml measured after 72 hr (reference value: 3.33 +/-0.33%); format: functional
# Drosophila melanogaster [5] = experiment: Insecticidal activity against first-instar larval stage of Drosophila melanogaster fed with artificial diet containing compound assessed as mortality at 37.6 umol/ml measured after 48 hr (reference value: 0%); format: functional
# Drosophila melanogaster [6] = experiment: Insecticidal activity against first-instar larval stage of Drosophila melanogaster fed with artificial diet containing compound assessed as mortality at 37.6 umol/ml measured after 24 hr (reference value: 0%); format: functional
# Drosophila melanogaster [7] = experiment: Insecticidal activity against first-instar larval stage of Drosophila melanogaster fed with artificial diet containing compound assessed as mortality at 18.3 umol/ml measured after 144 hr; format: functional
# Drosophila melanogaster [8] = experiment: Insecticidal activity against first-instar larval stage of Drosophila melanogaster fed with artificial diet containing compound assessed as mortality at 18.3 umol/ml measured after 120 hr; format: functional
# Drosophila melanogaster [9] = experiment: Insecticidal activity against first-instar larval stage of Drosophila melanogaster fed with artificial diet containing compound assessed as mortality at 18.3 umol/ml measured after 96 hr; format: functional
# Drosophila melanogaster [10] = experiment: Insecticidal activity against first-instar larval stage of Drosophila melanogaster fed with artificial diet containing compound assessed as mortality at 18.3 umol/ml measured after 48 hr (reference value: 0%); format: functional
# Drosophila melanogaster [11] = experiment: Insecticidal activity against first-instar larval stage of Drosophila melanogaster fed with artificial diet containing compound assessed as mortality at 18.3 umol/ml measured after 24 hr (reference value: 0%); format: functional
# Drosophila melanogaster [12] = experiment: Insecticidal activity against first-instar larval stage of Drosophila melanogaster fed with artificial diet containing compound assessed as mortality at 8.3 umol/ml measured after 144 hr; format: functional
# Drosophila melanogaster [13] = experiment: Insecticidal activity against first-instar larval stage of Drosophila melanogaster fed with artificial diet containing compound assessed as mortality at 8.3 umol/ml measured after 120 hr; format: functional
# Drosophila melanogaster [14] = experiment: Insecticidal activity against first-instar larval stage of Drosophila melanogaster fed with artificial diet containing compound assessed as mortality at 8.3 umol/ml measured after 96 hr; format: functional
# Drosophila melanogaster [15] = experiment: Insecticidal activity against first-instar larval stage of Drosophila melanogaster fed with artificial diet containing compound assessed as mortality at 8.3 umol/ml measured after 72 hr (reference value: 0%); format: functional
# Drosophila melanogaster [16] = experiment: Insecticidal activity against first-instar larval stage of Drosophila melanogaster fed with artificial diet containing compound assessed as mortality at 8.3 umol/ml measured after 48 hr (reference value: 0%); format: functional
# Drosophila melanogaster [17] = experiment: Insecticidal activity against first-instar larval stage of Drosophila melanogaster fed with artificial diet containing compound assessed as mortality at 8.3 umol/ml measured after 24 hr (reference value: 0%); format: functional
# Drosophila melanogaster [18] = experiment: Insecticidal activity against first-instar larval stage of Drosophila melanogaster fed with artificial diet containing compound assessed as mortality at 18.3 umol/ml measured after 72 hr (reference value: 0%); format: functional
# Drosophila melanogaster [19] = experiment: Insecticidal activity against first-instar larval stage of Drosophila melanogaster fed with artificial diet containing compound assessed as mortality measured after 72 hr; format: functional; settings: read-out: LD50 (the source's name)
# Drosophila melanogaster [20] = experiment: Insecticidal activity against first-instar larval stage of Drosophila melanogaster fed with artificial diet containing compound assessed as mortality measured after 24 hr; format: functional; settings: read-out: LD50 (the source's name)
# Spodoptera frugiperda = experiment: Insecticidal activity against Spodoptera frugiperda (fall armyworm) larvae assessed as mortality at 25 ppm; format: functional
# [21] = molecular target: Acetylcholinesterase (Spodoptera litura) (UniProt C5IU80); experiment: Inhibition of acetylcholinesterase in Spodoptera frugiperda (fall armyworm) at 15 ppm
# Acetylcholinesterase (Spodoptera litura), sequence (C5IU80 as listed by the source): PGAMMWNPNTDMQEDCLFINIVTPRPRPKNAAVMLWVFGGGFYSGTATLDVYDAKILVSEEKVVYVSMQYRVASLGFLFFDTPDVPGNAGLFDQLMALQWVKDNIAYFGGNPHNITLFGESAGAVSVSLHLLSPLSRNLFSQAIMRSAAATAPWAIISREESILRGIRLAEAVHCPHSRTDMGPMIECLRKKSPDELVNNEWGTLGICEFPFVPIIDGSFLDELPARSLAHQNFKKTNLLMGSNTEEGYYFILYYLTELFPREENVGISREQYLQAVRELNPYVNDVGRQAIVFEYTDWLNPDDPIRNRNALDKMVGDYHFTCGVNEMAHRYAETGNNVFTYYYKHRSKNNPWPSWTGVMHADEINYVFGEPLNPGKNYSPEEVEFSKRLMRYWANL
SMILES,mortality (Drosophila melanogaster [1]) [%],mortality (Drosophila melanogaster [2]) [%],mortality (Drosophila melanogaster [3]) [%],mortality (Drosophila melanogaster [4]) [%],mortality (Drosophila melanogaster [5]) [%],mortality (Drosophila melanogaster [6]) [%],mortality (Drosophila melanogaster [7]) [%],mortality (Drosophila melanogaster [8]) [%],mortality (Drosophila melanogaster [9]) [%],mortality (Drosophila melanogaster [10]) [%],mortality (Drosophila melanogaster [11]) [%],mortality (Drosophila melanogaster [12]) [%],mortality (Drosophila melanogaster [13]) [%],mortality (Drosophila melanogaster [14]) [%],mortality (Drosophila melanogaster [15]) [%],mortality (Drosophila melanogaster [16]) [%],mortality (Drosophila melanogaster [17]) [%],mortality (Drosophila melanogaster [18]) [%],other results
C=C(C)[C@@H]1CC[C@]2(C)CCC(=O)C[C@]2(O)C1 [5-HYDROXY-14-NOREUDESM-11-EN-3-ONE],23.3,23.3,23.3,16.6,13.3,13,20,20,20,6.7,3.3,16.6,16.6,6.6,6.7,6.7,0,13.3,
C=C(C)[C@@H]1CC[C@@]2(C)CC[C@@H](O)C(C)=C2C1 [3ALPHA-HYDROXY-CYPERONE],10,10,10,6.7,6.7,0,6.6,3.3,3.3,0,0,0,0,0,0,0,0,3.3,
C=C(C)[C@@H]1CC[C@]2(C)CCC(=O)[C@H](C)[C@]2(O)C1 [5ALPHA-HYDROXY-14-EUDESM-11-EN-3-ONE],40,36.6,36.6,33.3,0,0,26.7,20,20,0,0,23.3,16.7,16.7,0,0,0,13.3,LC50 (Drosophila melanogaster [19]): 42.6 mM
C=C(C)[C@@H]1CC[C@@]2(C)CCC(O)C(C)=C2C1 (mixture of isomers),,,,100,96,90,,,,86.7,70,,,,100,70,50,100,LC50 (Drosophila melanogaster [20]): 8.78 mM
C=C(C)[C@@H]1CC[C@@]2(C)CCC(=O)C(C)=C2C1 [ALPHA-CYPERONE],,,,100,100,96.7,,,,100,83,,,,100,76.6,70,100,LC50 (Drosophila melanogaster [20]): 4.99 mM
CC(=O)OC[C@H]1C[C@@H](OC(C)=O)[C@@H](OC(C)=O)[C@@]2(C)[C@H](OC(=O)c3ccccc3)[C@@H](OC(C)=O)[C@@H]3[C@H](OC(C)=O)[C@]12OC3(C)C,,,,,,,,,,,,,,,,,,,mortality at 25 ppm (Spodoptera frugiperda): 100%
CC1=C2C[C@H](C(C)(O)CO)CC[C@@]2(C)CCC1=O (stereo not given in full),23,23,23,20,20,20,23,23,23,10,10,10,10,10,10,10,10,0,
C=C(C)[C@@H]1CC[C@@]2(C)CC[C@H](O)C(C)=C2C1 [3BETA-HYDROXY-CYPERONE],,,,100,96,80,,,,73.3,36.7,,,,50,50,20,73.3,LC50 (Drosophila melanogaster [19]): 9.36 mM
C=C(C)[C@@H]1CC[C@]2(C)CCC(=O)C(C)=C2C1 [(-)-10-EPI-ALPHA-CYPERONE],,,,0.11,0.11,0,,,,0,0,,,,0,0,0,0,
CC(=O)OC[C@H]1C[C@@H](OC(C)=O)[C@@H](OC(C)=O)[C@@]2(C)[C@H](OC(=O)c3ccco3)[C@@H](OC(C)=O)[C@@H]3[C@H](OC(C)=O)[C@]12OC3(C)C,,,,,,,,,,,,,,,,,,,inhibition [21]: 100%; mortality at 25 ppm (Spodoptera frugiperda): 100%
